The values that follow come from patent US11034673B2, “(S)-N-(3-(6-isopropoxypyridin-3-yl)-1H-indazol-5-yl)-1-(2-(4-(4-(1-methyl-1H-1,2,4-triazol-3-yl)phenyl)-3,6-dihydropyridin-1(2H)-yl)-2-oxoethyl)-3-(methylthio)pyrrolidine-3-carboxamide compositions for pharmaceutical preparations” (Merck Sharp & Dohme Corp., priority 2014, dated 2021).

The data set in a line: solubility of crystalline form. The class given is physicochemical.

Regarding `CS[C@@]1(C(=O)Nc2ccc3[nH]nc(-c4ccc(OC(C)C)nc4)c3c2)CCN(CC(=O)N2CC=C(c3ccc(-c4ncn(C)n4)cc3)CC2)C1` [crystalline hydrate Form 2, (S)—N-(3-(6-isopropoxypyridin-3-yl)-1H-indazol-5-yl)-1-(2-(4-(4-(1-methyl-1H-1,2,4-triazol-3-yl)phenyl)-3,6-dihydropyridin-1(2H)-yl)-2-oxoethyl)-3-(methylthio)pyrrolidine-3-carboxamide], the solubility entry is reported as “poor solubility”.
